Reference: US5066671A, “Ellagic acid derivatives as phospholipase A2 inhibitors” (American Home Products Corporation, priority 1990, dated 1991)

Legend:
[1] = Derwent Publications 78-88538A; cited from earlier work
[2] = system: paw edema induced by the exogenous administration of PLA2; format: in vivo, male CD-1 mice
[3] = system: paw edema induced by the exogenous administration of PLA2; test: animal or person; format: in vivo, male CD-1 mice; details: for ED50 mg/kg p.o. at +10 min. (result in words) / % Change in Edema, 10 min: 10 min after PLA2 injection; for ED50 mg/kg p.o. at +10 min. (result in words): standard drugs; for ED50: Mus musculus, 10 min, read-out: ED50 mg/kg p.o. at +10 min.; for ED50 / ED50 mg/kg p.o. at +10 min.: po; for ED50 mg/kg p.o. at +10 min.: mouse, in vivo; for % Change in Edema, 30 min: 30 min after PLA2 injection; for % Change in Edema, 60 min: 60 min after PLA2 injection
Protocol: The ability of the compounds of the invention to inhibit paw edema induced by the exogenous administration of PLA2 is measured in the in vivo PLA2 murine paw edema assay.
The assay is carried out as follows:
Non-fasted, male CD-1 mice (8 weeks old; 31-36 grams) are placed in plastic boxes in groups of six. The right hind paw volume is measured using mercury plethysmography (zero time). Compounds are dosed orally (0.5 mL of 0.5% Tween80) 1 or 3 hours prior to PLA2 injection or intravenously (0.2 mL in 0.3% dimethylsulfoxide/saline) 3 minutes prior to PLA2 injection. A solution of purified PLA2, from the diamond back cotton mouth snake (A. piscivorus piscivorus) is prepared in saline at a concentration of 6 μg/mL. Fifty (50) μL (0.3 μg) of this PLA2 solution is injected subcutaneously into the right hind paw with a plastic 1 mL plastic syringe (27 gauge, 1" needle). Paw volume of the injected paw is measured again at 10 minutes, 30 minutes and 60 minutes after PLA2 injection. Animals are euthanized with CO2 at the completion of the study.
The paw edema is calculated by subtracting the zero time volume from the volume recorded at each time period. Mean paw edema for each treatment group is then calculated and expressed as (μL±S.E.). Drug effects are expressed as a percent change from control (vehicle) values. Statistical significance is determined by a oneway analysis of variance with LSD comparison to control (p<0.05). ED50 's are determined using repression analysis.

[4] = system: carrageenan paw edema; test: rat carrageenan paw edema assay; format: in vivo, male Sprague-Dawley rats; details: for ED50: Rattus norvegicus, po, 3 h, read-out: Oral ED50 (95% C.L.) mg/kg
Protocol: The compounds of the invention are tested in the rat carrageenan paw edema assay to determine their ability to inhibit the acute inflammatory response.
(§1) This assay is carried out as follows:
140-180 gm male Sprague-Dawley rats, in groups of 6 animals, are injected subcutaneously in the right paw with 0.1 ml of 1% carrageenan at zero time. Mercury plethysmographic readings (ml) of the paw are made at zero time and 3 hours later. Test compounds are suspended or dissolved in 0.5% methylcellulose and given perorally 1 hour prior to carrageenan administration.
The increase in paw volume (edema in ml) produced by the carrageenan is measured. Paw edema is calculated (3 hour volume minus zero time volume), and percent inhibition of edema is determined. Unpaired Student's t-test is used to determine statistical significance.

[5] = system: synthesis of LTB4 by rat glycogen-elicited polymorphonuclear leukocytes; test: inhibition of LTB4 synthesis by rat glycogen-elicited polymorphonuclear leukocytes (PMN); format: cell-based; details: Leukocyte
Protocol: Accordingly, the specificity of action of PLA2 inhibitors can be determined by the activity of test compounds in this assay, which measures the ability of compounds to inhibit the synthesis of LTB4 by rat glycogen-elicited polymorphonuclear leukocytes (PMN) in the presence of exogenous substrate.
To 1 mL aliquots of cell suspension, test drugs or vehicle are added, then preincubated at 37° C. for 10 minutes. A23187 (1 μM), [^3 H]-AA (3.0 μCi/mL) and unlabeled AA (1 μM) are then added and the samples are further incubated for 10 minutes. […]
Injections: 140 μL of each supernatant is injected directly onto column and ^3 H arachidonic acid metabolites are monitored using an on-line radioactivity detector (Ramona, IN/US, Fairfield, NJ). […]
Results are expressed as percent inhibition at a given compound dose.

[6] = system: Hageman factor; details: Ratnoff et al., J. Lab. Clin. Med. 63, 359 (1964); cited from earlier work
[7] = biological target: T1, Human Synovial PLA2 (Homo sapiens, UniProt P14555); test: in vitro isolated phospholipase A2 assay, human synovial fluid PLA2; format: biochemical; details: for IC50: compounds of the invention, read-out: IC50 HSF (human synovial fluid)
T1 construct: Purified human synovial fluid; from tissue; host or cells: human synovial fluid (purified)
T1 sequence (P14555 21-144): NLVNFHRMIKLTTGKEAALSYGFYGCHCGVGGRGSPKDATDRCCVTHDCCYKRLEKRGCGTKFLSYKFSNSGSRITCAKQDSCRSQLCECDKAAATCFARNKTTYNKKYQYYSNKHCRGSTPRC
Protocol: (§2) The compounds of the invention are tested in an in vitro isolated phospholipase A2 assay to determine the ability of the test compounds to inhibit the release of arachidonic acid from an arachidonic acid-containing substrate by the action of phospholipase A2 enzyme from human and non-human sources.
as §1
(§3) Into a 15 mL polypropylene tube are added the following:
(§4) ^3 H-AA E.coli substrate^1
(§5) PLA2 25 Volume yielding 12%
(§6) 100 hydrolysis in 10 min.
(§7) *pre-incubate at room temperature 30 min prior to substrate addition.
(§8) ^5 Stock 10 mM prepared in dimethyl sulfoxide. Make 1:2 dilution with
(§9) dimethyl sulfoxide and add 1 μL to 100 μL assay tube.
(§10) ^ 6 Two human PLA2 enzymes are used: (a) Semipurified human
(§11) platelet acid extract PLA2 (in 10 mM sodium acetate buffer, pH 4.5).
(§12) Remove protein precipitate by centrifugation at about 2200 rpm for 10
(§13) minutes. (b) Purified human synovial fluid.
(§14) Incubate the 100 μL reaction mixture for 10 minutes at 37° C. in a shaking water bath. The reaction is terminated by the addition of 2 mL tetrahydrofuran, followed by vortexing. NH2 columns (100 μg/mL-Analytichem International) are conditioned with 0.5 mL tetrahydrofuran followed by 0.5 mL tetrahydrofuran/water (2 mL:0.1 mL, v/v).
(§15) The sample is loaded onto the columns and slowly drawn through them. The hydrolyzed arachidonic acid retained in the columns is eluted therefrom with 1 mL tetrahydrofuran/glacial acetic acid (2%). The arachidonic acid is transferred to scintillation vials and quantitated by β-counting analysis. A "total counts" sample is prepared by pipetting 25 μL ^3 H-arachidonate E. coli directly into a scintillation vial to which is added 1 mL tetrahydrofuran. 10 mL aquasol (scintillation cocktail) is added to all samples. [formula]

[8] = system: synthesis of the arachidonic acid cyclooxygenase oxidation product TxB2; test: inhibition of TxB2 synthesis by rat polymorphonuclear leukocytes (cyclooxygenase activity); format: cell-based; details: rat PMN
Protocol: Rat polymorphonuclear leukocytes (PMNs) are obtained from female Wistar rats (150-200 g) which receive an injection of 6% glycogen (10 ml i.p.). Rats are sacrificed 18-24 hours post injection by CO2 asphyxiation and the elicited cells are harvested by peritoneal lavage using physiological saline (0.9% NaCl). The exudate is centrifuged at 400 xg for 10 minutes. The supernatant fluid is discarded and the cell pellet is resuspended to a concentration of 2.0×10^7 cells/mL in HBSS containing Ca^++ and Mg^++ and 10 μM L-cysteine.
To 1 mL aliquots of cell suspension, test drugs or vehicle are added, then preincubated at 37° C. for 10 minutes. A23187 (1 μM), [^3 H]-AA (3.0 μCi/mL) and unlabeled AA (1 μM) are then added and the samples are further incubated for 10 minutes. The reaction is terminated by centrifugation and pelleting cells. Supernatants are then analyzed by HPLC analysis on a 15 cm×4.6 mm ID supelcosil LC-18 (Supelco)(3M) column, using a two solvent system at a flow rate of 1.4 mL total flow as follows:
In this assay, the procedure of Example 1 is carried out as described. However, in order to determine cyclooxygenase activity, the samples are cochromatographed with authentic reference [^3 H]-TxB2.
The results are calculated as in Example 1 and presented below: […]

[9] = biological target: T2, Human Platelet PLA2 (Homo sapiens, UniProt P14555); test: in vitro isolated phospholipase A2 assay, human platelet PLA2; format: biochemical
T2 construct: platelet acid extract PLA2; from tissue; host or cells: human platelets (semipurified acid extract)
T2 sequence (P14555 21-144): T1 sequence (P14555 21-144)
Protocol: as §2, §1, §3, §4, §5, §6, §7, §8, §9, §10, §11, §12, §13, §14, §15

In the case of COc1c(O)cc2c(=O)oc3c(OC)c(O)cc4c(=O)oc1c2c34 [3,3'dimethyl ellagic acid], the antitumor activity [1] is listed as “antitumor activity”.
With COc1cccc2c1cc([N+](=O)[O-])c1c(C(=O)O)cc3c(c12)OCO3 [Aristolochic Acid, reference compound] the “inhibition only when coinjected with enzyme” value [2] was 30% and the “ED50 mg/kg p.o. at +10 min. (result in words)” value [3] was “Not Active”.
Compound CC(=O)Oc1ccccc1C(=O)O [Aspirin] has an ED50 [4] of 145 mg/kg.
NC1=NN(c2cccc(C(F)(F)F)c2)CC1 [BW755C, reference compound] showed an ED50 [3] of 50 mg/kg.
Work on CN1CCC(=C2c3ccccc3C=Cc3ccccc32)CC1 [Cyproheptadine, reference compound] yielded an ED50 [3] of 3.1 mg/kg.
With C[C@@H]1C[C@H]2[C@@H]3CCC4=CC(=O)C=C[C@]4(C)[C@@]3(F)[C@@H](O)C[C@]2(C)[C@@]1(O)C(=O)CO [Dexamethasone, reference compound] the “ED50 mg/kg p.o. at +10 min.” value [3] was 10 mg/kg.
In the case of O=c1oc2c(O)c(O)cc3c(=O)oc4c(O)c(O)cc1c4c23 [Example 1, 4, 4', 5, 5', 6, 6'-hexahydrodiphenic acid 2,6, 2', 6'-dilactone], the inhibition at 10 µM [5] is given as 39%, the “% Inhibition at 50 mg/kg (peroral)” value ([4]; 50 mg/kg peroral, 1 hour prior to carrageenan, edema at 3 hours) is given as 37% and the “ability to activate Hageman factor” value [6] is given as “ability to activate Hageman factor”. For the same compound, the “% Change in Edema, 10 min” value ([3]; 10 mg/kg i.v.) was -22%, the “% Change in Edema, 30 min” value ([3]; 10 mg/kg i.v.) was -64% and the “% Change in Edema, 60 min” value ([3]; 10 mg/kg i.v.) was -18%. The “% Change in Edema, 10 min” value ([3]; 100 mg/kg p.o.) was -35%, the “% Change in Edema, 30 min” value ([3]; 100 mg/kg p.o.) was “+4%” and the “% Change in Edema, 60 min” value ([3]; 100 mg/kg p.o.) was -73%. The “% Inhibition, HSF (human synovial fluid)” value ([7]; at 50 μM (footnote +), 50 µM) was 89.5%, the inhibition at 50 µM ([7]; at 50 μM (footnote +), read-out: % Inhibition, HSF (human synovial fluid)) was 86.5% and the IC50 [7] was 21 nM. It also gave an inhibition at 10 µM ([8]; Leukocyte) of 4% and an inhibition at 50 µM ([9]; at 50 μM (footnote +), read-out: % Inhibition, HP (human platelet)) of 38.8%.
Work on CC(=O)Oc1cc2c(=O)oc3c(OC(C)=O)c(OC(C)=O)cc4c(=O)oc(c1OC(C)=O)c2c34 [Example 2, Ellagic Acid Tetraacetate] yielded an inhibition at 10 µM [5] of -31%, an inhibition at 10 µM ([7]; read-out: % Inhibition at 10 μM, HSF (human synovial fluid)) of 90.7% and an inhibition at 10 µM ([9]; read-out: % Inhibition at 10 μM, HP (human platelet)) of -16.6%.
COc1ccc2c(c1)c(CC(=O)O)c(C)n2C(=O)c1ccc(Cl)cc1 [Indomethacin] showed an ED50 [4] of 3.7 mg/kg.
In the case of COc1ccc2cc([C@H](C)C(=O)O)ccc2c1 [Naproxen, reference compound], the “ED50 mg/kg p.o. at +10 min.” value [3] is reported as 18 mg/kg.
For Ellagic Acid Diacetate [Example 3], the “% Inhibition at 10 μM, HSF (human synovial fluid)” value ([7]; at 10 μM) was 95.6%, the IC50 [7] was 360 nM and the “% Inhibition (TxB2 synthesis)” value ([8]; at 10 μM) was 9%. For the same compound, the “% Inhibition at 10 μM, HP (human platelet)” value ([9]; at 10 μM) was 0%.
For Luffarrellolide [reference compound], the “inhibition only when coinjected with enzyme” value [2] was 30% and the “ED50 mg/kg p.o. at +10 min. (result in words)” value [3] was “Not Active”.
